Laboratory results taken from patent US8193198B2, “Uracil compounds and a herbicide comprising the same” (Korea Research Institute of Chemical Technology, priority 2008, dated 2012).

What was measured:
Type in all cases: in vivo
Cocklebur = assay: Foliar treatment herbicidal activity test; settings: for Herbicidal activity, Cocklebur: foliar treatment, 8 g a.i./ha, 2 weeks
Procedure: (§1) A compound fertilizer for horticulture (N:P:K=11:10:11) was mixed with sterilized sandy soil (pH 6.1, organic substance 1.0%, clay 21%, silt 17%, sand 52%), 1 g per each pot (350 cm^2). The soil was filled in a square plastic pot, and corn, Poaceae plants including Panicum dichotomiflorum and Digitaria ciliaris, broadleaf plants including Solanum nigrum, Aeschynomene indica, Abutilon theophrasti and cocklebur, or convolvulus rhizome were sown and covered with soil. Soil treatment was carried out by spraying a test formulation 1 day after the sowing, and foliar treatment, 8 to 12 days after the sowing. The test formulation was prepared by dissolving of a test compound in a mixture of 5 wt % of acetone and 1 wt % of an emulsifier, and diluting with water to prepare a wettable powder. 2000 L of the test formulation was sprayed per hectare. The amount of the active compound was adjusted to a desired quantity.
(§2) Following the treatment, the plants were grown for 2 weeks under a greenhouse condition (25-35° C. during the day and 20-25° C. at night, 14 hour light cycle). Herbicidal activity was evaluated in comparison to a non-treated control group according to the following standard: for weeds, 0 (no herbicidal effect) to 100 (complete destruction); and for crops 0 (harmless) to […] (complete destruction).

Digitaria ciliaris [1] = assay: Foliar treatment herbicidal activity test; settings: 2 weeks; for pest or weed control at 8 g/ha / pest or weed control at 16 g/ha: Digitaria ciliaris, 336 h; for pest or weed control at 16 g/ha: Table 6 (III), 16 g a.i./ha
Procedure: as §1, §2

Echinochloa crus-galli = assay: Foliar treatment herbicidal activity test; settings: 2 weeks; for pest or weed control at 8 g/ha / pest or weed control at 16 g/ha: Echinochloa crus-galli, 336 h; for pest or weed control at 16 g/ha: Table 6 (III), 16 g a.i./ha
Procedure: as §1, §2

monocot weeds = assay: Foliar treatment herbicidal activity test (summary in text)
Procedure: as §1, §2

Abutilon theophrasti [2] = assay: Foliar treatment herbicidal activity test; settings: 2 weeks, scale 0 to 100 (complete destruction)
Procedure: as §1, §2

Aeschynomene indica [3] = assay: Foliar treatment herbicidal activity test; settings: 2 weeks, scale 0 to 100 (complete destruction)
Procedure: as §1, §2

Panicum dichotomiflorum = assay: Foliar treatment herbicidal activity test; settings: 2 weeks, scale 0 to 100 (complete destruction)
Procedure: as §1, §2

Solanum nigrum [4] = assay: Foliar treatment herbicidal activity test; settings: 2 weeks, scale 0 to 100 (complete destruction)
Procedure: as §1, §2

Sorghum bicolor [5] = assay: Foliar treatment herbicidal activity test; settings: Table 4 (I), 8 g a.i./ha, 2 weeks, scale 0 to 100 (complete destruction)
Procedure: as §1, §2

Cyperus serotinus = assay: Foliar treatment herbicidal activity test; settings: Table 4 (I), 8 g a.i./ha, 2 weeks, scale 0 to 100 (complete destruction)
Corn = assay: Soil treatment test, crop harm; settings: Table 7, 32 g a.i./ha, 2 weeks, crops scale 0 (harmless) to 10 (complete destruction)
Procedure: as §1, §2

Wheat = assay: Soil treatment test, crop harm; settings: Table 7, 32 g a.i./ha, 2 weeks, crops scale 0 (harmless) to 10 (complete destruction)
Abutilon theophrasti [6] = assay: Soil treatment herbicidal activity test; settings: Table 7, 32 g a.i./ha, 2 weeks, scale 0 to 100 (complete destruction)
Procedure: as §1, §2

Aeschynomene indica [7] = assay: Soil treatment herbicidal activity test; settings: Table 7, 32 g a.i./ha, 2 weeks, scale 0 to 100 (complete destruction)
Procedure: as §1, §2

Digitaria ciliaris [8] = assay: Soil treatment herbicidal activity test; settings: Table 7, 32 g a.i./ha, 2 weeks, scale 0 to 100 (complete destruction)
Procedure: as §1, §2

Solanum nigrum [9] = assay: Soil treatment herbicidal activity test; settings: Table 7, 32 g a.i./ha, 2 weeks, scale 0 to 100 (complete destruction)
Procedure: as §1, §2

Sorghum bicolor [10] = assay: Soil treatment herbicidal activity test; settings: Table 7, 32 g a.i./ha, 2 weeks, scale 0 to 100 (complete destruction)
Procedure: as §1, §2

[11] = Table 3, scale 0 (no herbicidal effect) to 100 (complete destruction)
[12] = Table 3, 8 g a.i./ha, scale 0 (no herbicidal effect) to 100 (complete destruction)
[13] = Table 4 (I), scale 0 to 100 (complete destruction)
[14] = Table 4 (I), 8 g a.i./ha, scale 0 to 100 (complete destruction)
[15] = Table 5 (II), 8 g a.i./ha, scale 0 to 100 (complete destruction)
[16] = scale 0 to 100 (complete destruction)

For `COC(=O)C(C)NC(=O)C(C)Oc1cc(-n2c(=O)cc(C(F)(F)F)n(C)c2=O)c(F)cc1Cl` (centres unmarked) [compound 2], the “Herbicidal activity against cocklebur (in words)” value (Cocklebur) was “imperfect herbicidal activity”, the “Herbicidal activity, Cocklebur” value (Cocklebur; [11]) was 70 and the pest or weed control at 8 g/ha (Digitaria ciliaris [1]; [12]) was 25%. The pest or weed control at 8 g/ha (Echinochloa crus-galli; [12]) was 65% and the “Herbicidal activity against monocot weeds (in words)” value (monocot weeds) was “very low herbicidal activity”.
`COC(=O)CCNC(=O)C(C)Oc1cc(-n2c(=O)cc(C(F)(F)F)n(C)c2=O)c(F)cc1Cl` (centres unmarked) [Compound No. 1, 3-[{2-[2-chloro-5-(3,6-dihydro-3-methyl-2,6-dioxo-4-trifluoromethyl-1(2H)-pyrimidinyl)-4-fluorophenoxy]-1-oxopropyl}amino]propionic acid methyl ester] was tested, and the “Herbicidal activity, Abutilon theophrasti” value (Abutilon theophrasti [2]; Table 4 (I), 8 g a.i./ha) was 100, the “Herbicidal activity, Abutilon theophrasti” value (Abutilon theophrasti [2]; Table 5 (II), 8 g a.i./ha) was 100 and the “Herbicidal activity, Aeschynomene indica” value (Aeschynomene indica [3]; Table 4 (I), 8 g a.i./ha) was 100. The “Herbicidal activity, Aeschynomene indica” value (Aeschynomene indica [3]; Table 5 (II), 8 g a.i./ha) was 100, the “Herbicidal activity, Cocklebur” value (Cocklebur; [11]) was 100 and the “Herbicidal activity, Cocklebur” value (Cocklebur; [13]) was 100. For the same compound, the pest or weed control at 8 g/ha (Digitaria ciliaris [1]; [12]) was 100%, the “Herbicidal activity, Digitaria ciliaris” value (Digitaria ciliaris [1]; [14]) was 100 and the “Herbicidal activity, Digitaria ciliaris” value (Digitaria ciliaris [1]; [15]) was 100. The pest or weed control at 8 g/ha (Echinochloa crus-galli; [12]) was 100%, the “Herbicidal activity, Echinochloa crus-galli” value (Echinochloa crus-galli; [15]) was 100 and the “Herbicidal activity, Panicum dichotomiflorum” value (Panicum dichotomiflorum; Table 5 (II), 8 g a.i./ha) was 100. The “Herbicidal activity, Solanum nigrum” value (Solanum nigrum [4]; Table 5 (II), 8 g a.i./ha) was 100, the “Herbicidal activity, Sorghum bicolor” value (Sorghum bicolor [5]) was 97 and the “Herbicidal activity, Cyperus serotinus” value (Cyperus serotinus) was 100. The “Crop harm, Corn” value (Corn) was 2, the “Crop harm, Wheat” value (Wheat) was 3 and the “Herbicidal activity, Abutilon theophrasti” value (Abutilon theophrasti [6]) was 100. For the same compound, the “Herbicidal activity, Aeschynomene indica” value (Aeschynomene indica [7]) was 100, the “Herbicidal activity, Digitaria ciliaris” value (Digitaria ciliaris [8]) was 100 and the “Herbicidal activity, Solanum nigrum” value (Solanum nigrum [9]) was 100. The “Herbicidal activity, Sorghum bicolor” value (Sorghum bicolor [10]) was 100.
With `COC(=O)CNC(=O)C(C)Oc1cc(-n2c(=O)cc(C(F)(F)F)n(C)c2=O)c(F)cc1Cl` (centres unmarked) [compound 1] the “Herbicidal activity against cocklebur (in words)” value (Cocklebur) was “imperfect herbicidal activity”, the “Herbicidal activity, Cocklebur” value (Cocklebur; [11]) was 98 and the pest or weed control at 8 g/ha (Digitaria ciliaris [1]; [12]) was 30%. For the same compound, the pest or weed control at 8 g/ha (Echinochloa crus-galli; [12]) was 55% and the “Herbicidal activity against monocot weeds (in words)” value (monocot weeds) was “very low herbicidal activity”.
For `COC(=O)COC(=O)CCNC(=O)C(C)Oc1cc(-n2c(=O)cc(C(F)(F)F)n(C)c2=O)c(F)cc1Cl` (centres unmarked) [Compound No. 22, 3-[{2-[2-chloro-5-(3,6-dihydro-3-methyl-2,6-dioxo-4-trifluoromethyl-1(2H)-pyrimidinyl)-4-fluorophenoxy]-1-oxopropyl}amino]propionyloxy acetic acid methyl ester], the “Herbicidal activity, Abutilon theophrasti” value (Abutilon theophrasti [2]; Table 6 (III), 16 g a.i./ha) was 100, the “Herbicidal activity, Aeschynomene indica” value (Aeschynomene indica [3]; Table 6 (III), 16 g a.i./ha) was 100 and the pest or weed control at 16 g/ha (Digitaria ciliaris [1]; [16]) was 85%. The pest or weed control at 16 g/ha (Echinochloa crus-galli; [16]) was 100%, the “Herbicidal activity, Panicum dichotomiflorum” value (Panicum dichotomiflorum; Table 6 (III), 16 g a.i./ha) was 100 and the “Herbicidal activity, Solanum nigrum” value (Solanum nigrum [4]; Table 6 (III), 16 g a.i./ha) was 100.
`COC(=O)CONC(=O)C(C)Oc1cc(-n2c(=O)cc(C(F)(F)F)n(C)c2=O)c(F)cc1Cl` (centres unmarked) [compound 3] was tested, and the “Herbicidal activity against cocklebur (in words)” value (Cocklebur) was “imperfect herbicidal activity”, the “Herbicidal activity, Cocklebur” value (Cocklebur; [11]) was 95 and the pest or weed control at 8 g/ha (Digitaria ciliaris [1]; [12]) was 10%. The pest or weed control at 8 g/ha (Echinochloa crus-galli; [12]) was 30% and the “Herbicidal activity against monocot weeds (in words)” value (monocot weeds) was “very low herbicidal activity”.
`CCCCOC(=O)CCNC(=O)C(C)Oc1cc(-n2c(=O)cc(C(F)(F)F)n(C)c2=O)c(F)cc1Cl` (centres unmarked) [Compound No. 23, 3-[{2-[2-chloro-5-(3,6-dihydro-3-methyl-2,6-dioxo-4-trifluoromethyl-1(2H)-pyrimidinyl)-4-fluorophenoxy]-1-oxopropyl}amino]propionic acid n-butyl ester] was tested, and the “Herbicidal activity, Abutilon theophrasti” value (Abutilon theophrasti [2]; Table 6 (III), 16 g a.i./ha) was 100, the “Herbicidal activity, Aeschynomene indica” value (Aeschynomene indica [3]; Table 6 (III), 16 g a.i./ha) was 100 and the pest or weed control at 16 g/ha (Digitaria ciliaris [1]; [16]) was 100%. For the same compound, the pest or weed control at 16 g/ha (Echinochloa crus-galli; [16]) was 100%, the “Herbicidal activity, Panicum dichotomiflorum” value (Panicum dichotomiflorum; Table 6 (III), 16 g a.i./ha) was 100 and the “Herbicidal activity, Solanum nigrum” value (Solanum nigrum [4]; Table 6 (III), 16 g a.i./ha) was 100.
`COC(=O)CCNC(=O)C(C)Sc1cc(-n2c(=O)cc(C(F)(F)F)n(C)c2=O)c(F)cc1Cl` (centres unmarked) [Compound No. 36, 3-[{2-[2-chloro-5-(3,6-dihydro-3-methyl-2,6-dioxo-4-trifluoromethyl-1(2H)-pyrimidinyl)-4-fluorophenylthio]-1-oxopropyl}amino]propionic acid methyl ester] was tested, and the “Herbicidal activity, Abutilon theophrasti” value (Abutilon theophrasti [2]; Table 4 (I), 8 g a.i./ha) was 100, the “Herbicidal activity, Aeschynomene indica” value (Aeschynomene indica [3]; Table 4 (I), 8 g a.i./ha) was 100 and the “Herbicidal activity, Cocklebur” value (Cocklebur; [13]) was 100. For the same compound, the pest or weed control at 8 g/ha (Digitaria ciliaris [1]; [14]) was 100%, the “Herbicidal activity, Sorghum bicolor” value (Sorghum bicolor [5]) was 100 and the “Herbicidal activity, Cyperus serotinus” value (Cyperus serotinus) was 100. For the same compound, the “Crop harm, Corn” value (Corn) was 0, the “Crop harm, Wheat” value (Wheat) was 0 and the “Herbicidal activity, Abutilon theophrasti” value (Abutilon theophrasti [6]) was 100. For the same compound, the “Herbicidal activity, Aeschynomene indica” value (Aeschynomene indica [7]) was 100, the “Herbicidal activity, Digitaria ciliaris” value (Digitaria ciliaris [8]) was 100 and the “Herbicidal activity, Solanum nigrum” value (Solanum nigrum [9]) was 100. For the same compound, the “Herbicidal activity, Sorghum bicolor” value (Sorghum bicolor [10]) was 100.
`C=CCOC(=O)CCNC(=O)C(C)Oc1cc(-n2c(=O)cc(C(F)(F)F)n(C)c2=O)c(F)cc1Cl` (centres unmarked) [Compound No. 25, 3-[{2-[2-chloro-5-(3,6-dihydro-3-methyl-2,6-dioxo-4-trifluoromethyl-1(2H)-pyrimidinyl)-4-fluorophenoxy]-1-oxopropyl}amino]propionic acid allyl ester] was tested, and the “Herbicidal activity, Abutilon theophrasti” value (Abutilon theophrasti [2]; Table 6 (III), 16 g a.i./ha) was 100, the “Herbicidal activity, Aeschynomene indica” value (Aeschynomene indica [3]; Table 6 (III), 16 g a.i./ha) was 100 and the pest or weed control at 16 g/ha (Digitaria ciliaris [1]; [16]) was 100%. The pest or weed control at 16 g/ha (Echinochloa crus-galli; [16]) was 90%, the “Herbicidal activity, Panicum dichotomiflorum” value (Panicum dichotomiflorum; Table 6 (III), 16 g a.i./ha) was 96 and the “Herbicidal activity, Solanum nigrum” value (Solanum nigrum [4]; Table 6 (III), 16 g a.i./ha) was 100.
For `CCOC(=O)CCNC(=O)C(C)Oc1cc(-n2c(=O)cc(C(F)(F)F)n(C)c2=O)c(F)cc1Cl` (centres unmarked) [Compound No. 24, 3-[{2-[2-chloro-5-(3,6-dihydro-3-methyl-2,6-dioxo-4-trifluoromethyl-1(2H)-pyrimidinyl)-4-fluorophenoxy]-1-oxopropyl}amino]propionic acid ethyl ester], the “Herbicidal activity, Abutilon theophrasti” value (Abutilon theophrasti [2]; Table 5 (II), 8 g a.i./ha) was 100, the “Herbicidal activity, Aeschynomene indica” value (Aeschynomene indica [3]; Table 5 (II), 8 g a.i./ha) was 100 and the pest or weed control at 8 g/ha (Digitaria ciliaris [1]; [15]) was 99%. For the same compound, the pest or weed control at 8 g/ha (Echinochloa crus-galli; [15]) was 98%, the “Herbicidal activity, Panicum dichotomiflorum” value (Panicum dichotomiflorum; Table 5 (II), 8 g a.i./ha) was 99 and the “Herbicidal activity, Solanum nigrum” value (Solanum nigrum [4]; Table 5 (II), 8 g a.i./ha) was 100.
With `C#CCOC(=O)CCNC(=O)C(C)Oc1cc(-n2c(=O)cc(C(F)(F)F)n(C)c2=O)c(F)cc1Cl` (centres unmarked) [Compound No. 26, 3-[{2-[2-chloro-5-(3,6-dihydro-3-methyl-2,6-dioxo-4-trifluoromethyl-1(2H)-pyrimidinyl)-4-fluorophenoxy]-1-oxopropyl}amino]propionic acid propargyl ester] the “Herbicidal activity, Abutilon theophrasti” value (Abutilon theophrasti [2]; Table 6 (III), 16 g a.i./ha) was 100, the “Herbicidal activity, Aeschynomene indica” value (Aeschynomene indica [3]; Table 6 (III), 16 g a.i./ha) was 100 and the pest or weed control at 16 g/ha (Digitaria ciliaris [1]; [16]) was 95%. For the same compound, the pest or weed control at 16 g/ha (Echinochloa crus-galli; [16]) was 90%, the “Herbicidal activity, Panicum dichotomiflorum” value (Panicum dichotomiflorum; Table 6 (III), 16 g a.i./ha) was 90 and the “Herbicidal activity, Solanum nigrum” value (Solanum nigrum [4]; Table 6 (III), 16 g a.i./ha) was 100.
